In general, AC50 refers to the midpoint of the concentration-response curve, whichever way the signal moves. Usually IC50 stands for the point on the concentration scale where inhibition reaches its midpoint.

The values below come from patent US20250092065A1, “2-(INDAZOL-5-YL)-6-(PIPERIDIN-4-YL)-1,7-NAPHTHYRIDINE DERIVATIVES AND RELATED COMPOUNDS AS MODULATORS FOR SPLICING NUCLEIC ACIDS AND FOR THE TREATMENT OF PROLIFERATIVE DISEASES” (REMIX THERAPEUTICS INC., priority 2022, published 2025).

In this assay the test system is HTT mRNA. In words: RT-qPCR splicing assay, HTT mRNA canonical (CJ) and alternative (AJ) junction. Type of assay: cell-based, human. The note with it: Homo sapiens; for AC50: HTT alternative junction mRNA, read-out: HTT AJ (increase in AJ mRNA, AC50). In short, it runs like this: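 Both isoforms, CJ and AJ, read by qPCR from crude lysates of treated A673 or K562 cells; 24 h, 37 °C, maximum 10 uM. Normalization: housekeeper ΔCt, then DMSO ΔΔCt.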

The mark [1] stands for this setting: HTT canonical junction mRNA, RT-qPCR, read-out: HTT CJ (decrease in CJ mRNA levels, IC50).
Setting [2] is: canonical junction qPCR panel, Table 4, read-out: HTT IC50 (decrease in CJ mRNA levels).

Structures can show the parent of a compound that is named as a salt. Where two headings read alike, the source gives them in different places.

On to `CNC1CCN(c2ccc3nc(-c4cc5oc(C)nc5cc4O)ccc3n2)CC1` [Compound 425], for which the AC50 (RT-qPCR) fell in the range of 1000 to 10000 nM. Further, the IC50 runs as follows: under setting [1], 1000 to 10000 nM; under setting [2], 1000 to 10000 nM.

Take `Cc1nc2c(C)c(O)c(-c3ccc4nc(N5CC[C@H](NC6CC6)C5)ncc4n3)cc2o1` [Compound 433, 6-{2-[(3S)-3-(cyclopropylamino)pyrrolidin-1-yl]pyrido[3,2-d]pyrimidin-6-yl}-2,4-dimethyl-1,3-benzoxazol-5-ol]: under “RT-qPCR”, the AC50 was under 100 nM. The IC50 runs as follows: under setting [1], under 100 nM; under setting [2], under 100 nM.

`Cc1nc2cc(O)c(-c3ccc4nc(N5CC[C@H](NC6CC6)C5)ncc4n3)cc2o1` [Compound 435, 6-{2-[(3S)-3-(cyclopropylamino)pyrrolidin-1-yl]pyrido[3,2-d]pyrimidin-6-yl}-2-methyl-1,3-benzoxazol-5-ol]: under “RT-qPCR”, the AC50 lay in the range of 100 to 1000 nM. The IC50 under setting [1] is 100 to 1000 nM and the IC50 under setting [2] was in the range of 100 to 1000 nM.

In the case of `Cc1nc2c(C)c(O)c(-c3ccc4nc(N5CC[C@@H](NC(C)(C)C)C5)ncc4n3)cc2o1` [Compound 436], for the setting “RT-qPCR”, the half-maximal activity concentration (AC50) was under 100 nM. Also, the IC50 by setting is: under setting [1], under 100 nM; under setting [2], under 100 nM.

Take `Cc1nc2c(C)c(O)c(-c3ccc4nc(N5CC[C@H](NC(C)(C)C)C5)ncc4n3)cc2o1` [Compound 437]: the AC50 (RT-qPCR) is under 100 nM. Also, the IC50 was under 100 nM under setting [1] and under 100 nM under setting [2].

For `Cc1c(O)c(-c2ccc3nc(N4CC[C@@H](NC5CC5)C4)ncc3n2)cc2cn(C)nc12` [Compound 438, 5-{2-[(3R)-3-(cyclopropylamino)pyrrolidin-1-yl]pyrido[3,2-d]pyrimidin-6-yl}-2,7-dimethylindazol-6-ol], the half-maximal activity concentration (AC50) (RT-qPCR) was under 100 nM. The IC50 reads like this: under setting [1], under 100 nM; under setting [2], under 100 nM.

In the case of `Cc1c(O)c(-c2ccc3nc(N4CC[C@H](NC5CC5)C4)ncc3n2)cc2cn(C)nc12` [Compound 439, 5-{2-[(3S)-3-(cyclopropylamino)pyrrolidin-1-yl]pyrido[3,2-d]pyrimidin-6-yl}-2,7-dimethylindazol-6-ol], the AC50 (RT-qPCR) is under 100 nM. The IC50 is under 100 nM under setting [1] and under 100 nM under setting [2].

As to `Cc1nc2c(C)c(O)c(-c3ccc4cc(N5CC[C@@H](NC6CC6)C5)ncc4n3)cc2o1` [Compound 440, 6-{6-[(3R)-3-(cyclopropylamino)pyrrolidin-1-yl]-1,7-naphthyridin-2-yl}-2,4-dimethyl-1,3-benzoxazol-5-ol], the AC50 (RT-qPCR) lay in the range of 100 to 1000 nM. Further, the IC50 is, setting by setting: under setting [1], under 100 nM; under setting [2], under 100 nM.

With `Cc1nc2c(C)c(O)c(-c3ccc4cc(N5CC[C@H](NC6CC6)C5)ncc4n3)cc2o1` [Compound 441, 6-{6-[(3S)-3-(cyclopropylamino)pyrrolidin-1-yl]-1,7-naphthyridin-2-yl}-2,4-dimethyl-1,3-benzoxazol-5-ol], the AC50 (RT-qPCR) is 100 to 1000 nM. For the same molecule, the IC50 under setting [1] is under 100 nM and the 50% inhibitory concentration (IC50) under setting [2] is under 100 nM.

Turning to `Cn1cc2cc(-c3ccc4nc(C5CCNC6(CC6)C5)ncc4n3)c(O)cc2n1` (stereo not drawn) [Compound 448, 5-(2-{4-azaspiro[2.5]octan-7-yl}pyrido[3,2-d]pyrimidin-6-yl)-2-methylindazol-6-ol], the AC50 (RT-qPCR) was 1000 to 10000 nM. The IC50 is, setting by setting: under setting [1], 100 to 1000 nM; under setting [2], 100 to 1000 nM.

Take `Cn1cc2cc(-c3ccc4cc(N5CCC(NC(C)(C)C)C5)ncc4n3)c(O)cc2n1` (stereo not drawn) [Compound 449, 5-{6-[3-(tert-butylamino)pyrrolidin-1-yl]-1,7-naphthyridin-2-yl}-2-methylindazol-6-ol]: where the note is “RT-qPCR”, the AC50 was in the range of 1000 to 10000 nM. Besides, the 50% inhibitory concentration (IC50) under setting [1] was in the range of 1000 to 10000 nM and the IC50 under setting [2] was 1000 to 10000 nM.

With `Cc1nc2cc(O)c(-c3ccc4cc(N5CC[C@H](NC(C)(C)C)C5)ncc4n3)cc2o1` [Compound 450], the AC50 (RT-qPCR) lay within 1000 to 10000 nM. Besides, the IC50 by setting is: under setting [1], 1000 to 10000 nM; under setting [2], 1000 to 10000 nM.

Turning to `Cc1c(O)c(-c2cc(Cl)c3cc(N4CCNCC4)cc(C)c3n2)cc2cn(C)nc12` [Compound 482, 5-[4-chloro-8-methyl-6-(piperazin-1-yl)577yrrolidi-2-yl]-2,7-dimethylindazol-6-ol hydrochloride], for the setting “RT-qPCR”, the AC50 lay in the range of 100 to 1000 nM. Moreover, the half-maximal inhibitory concentration (IC50) reads like this: under setting [1], under 100 nM; under setting [2], under 100 nM.

Regarding `Cc1cc2nc(-c3cc4cn(C)nc4c(C)c3O)cc(Cl)c2cc1N1CCNCC1` [Compound 484, 5-[4-chloro-7-methyl-6-(piperazin-1-yl)586yrrolidi-2-yl]-2,7-dimethylindazol-6-ol], the AC50 (RT-qPCR) was over 10000 nM. Also, the IC50 runs as follows: under setting [1], over 10000 nM; under setting [2], over 10000 nM.

On to `CNC1CCN(c2cc3c(Cl)cc(-c4cc5cn(C)nc5c(C)c4O)nc3cc2C)C1` (stereo not drawn) [Compound 486, 5-{4-chloro-7-methyl-6-[3-(methylamino)pyrrolidin-1-yl]quinolin-2-yl}-2,7-dimethylindazol-6-ol], for which the AC50 (RT-qPCR) lay in the range of 1000 to 10000 nM. Further, the IC50 runs as follows: under setting [1], 1000 to 10000 nM; under setting [2], 1000 to 10000 nM.
